Experimental data reported in patent publication US20040209312A1, “Identifying and reducing the allergenicity of food proteins” (priority 2001, published 2004).

Tested on: naïve human CD4+ T-cells and dendritic cells
Format: cell-based
Conditions: for T-cell epitope designation: Ber e 1 dataset, background 4.27%

Row | Substance | percentage of the donor pool that responded with a baseline-normalized response of 2.95 or better (percent responders) (Ber e 1 15-mer peptide set, 5 μM peptide, human donors) [%] | T-cell epitope designation (5 μM peptide) | positive control response (T-cell proliferation) (positive control antigen in all tests reported)
1 | RQQMLSHCRMYMRQQ [peptide #4] | 18.48 | reached the three-fold cut-off | –
2 | LEGMDESCRCEGLRM [peptide #12] | – | minor epitopes | –
3 | LRMMMMRMQQEEMQP [Peptide # 16] | – | does not reach any epitope designation | –
4 | MQPRGEQMRRMMRLA [peptide #20] | – | minor epitopes | –
5 | tetanus toxoid: positive control antigen in the T-cell proliferation assay [reference compound] | – | – | robust positive control responses
